Test results reported in patent US20060014813A1, “Pharmaceutical compounds that regenerate in vivo” (priority 2003, published 2006).
Values belong to the molecule of their own block, whether it stands above or below them.

What was measured:
bovine msrA = target: T1, bovine msrA (Bos taurus, UniProt P54149); experiment: Methionine sulfoxide reductase assay by isothermal titration calorimetry (kcat, KM); type: biochemical; conditions: substrate for msrA; 300 nM enzyme, pH 7.50, 37° C
T1 construct: made in house; host or cells: E. coli
T1 sequence (P54149 21-233): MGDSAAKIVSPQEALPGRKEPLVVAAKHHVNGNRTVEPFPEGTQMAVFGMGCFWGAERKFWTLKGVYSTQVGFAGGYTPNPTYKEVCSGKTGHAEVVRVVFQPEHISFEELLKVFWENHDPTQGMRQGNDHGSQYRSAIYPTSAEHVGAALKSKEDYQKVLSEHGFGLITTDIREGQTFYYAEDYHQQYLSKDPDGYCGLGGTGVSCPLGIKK
Protocol: (§1) The compounds of the present invention may be assayed for activity both in vitro and in vivo. For example, in order to assay whether a compound of this invention will serve as a regenerable Msr substrate, the compound is titrated in several increments into a solution of the enzyme msrA (pH 7.5, 37 °C, reducing buffer) contained in a microcalorimeter. The heat (ΔH) from the reaction is measured at each step. These power output levels are converted into rates of reaction according to Todd & Gomez, Anal. Biochem., 296, pp. 1-9 (2001), and the resulting rates are plotted versus substrate concentration. From this plot, the kcat and KM are determined according to standard Michaelis-Menton enzyme kinetics.
An assay using isothermal titration calorimetry was developed. […] The quicker such compounds are converted back to their reduced form by MSR, the more equivalents of ROS they will eliminate before being cleared from the body. The assay was used to determine the enzymatic parameters (kcat and KM) of the compounds of this invention interacting with msrA under standard conditions. Chemical modifications that increase kcat, a measure of how quickly a compound was turned over by the enzyme, and/or decrease its KM, a measure of how readily a compound bound to the enzyme, represent improvements in that compound's ability to be efficiently processed by msrA.
In order to run the assay bovine msrA was overexpressed in E. coli and purified according to the method described in Lowther et al., Proc. Natl. Acad. Sci. USA, 97, pp. 6463-6468 (2000), the disclosure of which is herein incorporated by reference. A 300 nM solution of the enzyme was prepared in 50 mM Tris, 50 mM KCl, 4 mM tris(carboxyethyl)phosphine (TCEP), pH 7.50. A 25 mM solution of the compound to be tested was prepared in the identical buffer. A 1.8 ml aliquot of the msrA enzyme solution was loaded into the cell of a VP-ITC instrument from Microcal Corp. (Northampton, Mass.). The test compound solution was loaded into the syringe, and the entire system was allowed to come to thermal equilibrium at 37° C. while stirring at a rate of 300 rpm. Once equilibrium was established, a series of small injections ([…]) of the compound into the protein solution were made, and the increasing power output of the enzyme was measured after each injection, relative to the instrument baseline. These power output levels were converted into rates of reaction, according to Todd & Gomez, Anal. Biochem., 296, pp. 1-9 (2001), the disclosure of which is herein incorporated, and the resulting rates were plotted against substrate concentration. From this plot, the kcat and KM were determined with a computer fitting routine according to standard Michaelis-Menton enzyme kinetics.
To ensure that the compounds would be substrates for MSR, we determined the substrate specificities of MSR by choosing test compounds that contained a sulfoxide moiety and testing those compounds for MSR activity in the enzyme assay described below. Table 1 sets forth compounds that were tested for their ability to serve as MSR substrates using the isothermal titration calorimetry assay described above: […]

msrA = target: T2, msrA (Bos taurus, UniProt P54149); experiment: Calorimetric test of whether a compound is turned over by msrA (protein injected into compound solution); type: biochemical, bovine; conditions: compound at 500 μM or as high as possible, three injections of msrA, heat evolved
T2 construct: made in house; host or cells: E. coli
T2 sequence (P54149 21-233): T1 sequence (P54149 21-233)
Protocol: Compounds 105-108 in the list were only soluble below 1 mM. However, an assessment was made as to whether those compounds were substrates for msrA (i.e., whether they are turned over by the enzyme), by employing the following experimental protocol. The compounds were dissolved in the usual buffer [50 mM Tris, 50 mM KCl, 5 mM TCEP, pH 7.50] at a concentration of 500 μM, or as high as possible. 1.8 ml of this solution was loaded into the calorimetric cell, while the syringe was filled with a […] solution of msrA in the same buffer. After the stirring and equilibration period has elapsed, three injections of protein were made, spaced out over 20 minute intervals. If the compound is a substrate for msrA, a large amount of heat will be evolved after the first injection (several millicalories generated over ˜10 minutes), while the other two injections of protein will register only small heats (tens of microcalories), before the signal quickly returns to the baseline. These smaller heats represent the heat of dilution of the protein into the solution in the calorimetric cell.
Once the substrate has been fully reacted and the heat output has returned to the baseline, further injections of protein show only the heat of dilution of the enzyme.

reactive oxygen species = conditions: systemic injection; cited from earlier work
[1] = Solubility of test compounds in assay buffer; type: physicochemical; conditions: Tris assay buffer, pH 7.5, aqueous buffer; 50 mM Tris, 50 mM KCl, 5 mM TCEP, pH 7.50
COX-2 = conditions: animal models of Parkinson's disease; cited from earlier work
[2] = substrate: CC1=C(CC(=O)NC(CC[S+](C)[O-])C(=O)O)c2cc(F)ccc2/C1=C\c1ccc([S+](C)[O-])cc1; experiment: purified protein, by the assay type; type: biochemical, bovine; conditions: other: substrate for msrA, 300 nM enzyme, pH 7.50, 37° C, pH 7.5
Protocol: as §1
An assay using isothermal titration calorimetry was developed. […] Chemical modifications that increase kcat, a measure of how quickly a compound was turned over by the enzyme, and/or decrease its KM, a measure of how readily a compound bound to the enzyme, represent improvements in that compound's ability to be efficiently processed by msrA. […]
To ensure that the compounds would be substrates for MSR, we determined the substrate specificities of MSR by choosing test compounds that contained a sulfoxide moiety and testing those compounds for MSR activity in the enzyme assay described below. […]

[3] = substrate: C[S+]([O-])CC[C@H](N)C(=O)O; experiment: purified protein, by the assay type; conditions: other: substrate for msrA, 300 nM enzyme, pH 7.50, 37° C, pH 7.5
[4] = substrate: CC1=C(CC(=O)O)c2cc(F)ccc2/C1=C\c1ccc([S+](C)[O-])cc1; experiment: purified protein, by the assay type; conditions: other: substrate for msrA, 300 nM enzyme, pH 7.50, 37° C, pH 7.5

Molecule: C[S+](C)[O-] [compound 103, DMSO]
- Kcat (bovine msrA): 0.064 s⁻¹
- Km (bovine msrA): 314 µM

Molecule: C[S+]([O-])CC[C@H](N)C(=O)O (some centres unmarked) [compound 100, methionine sulfoxide]
- substrate for msrA (turned over by the enzyme) (msrA): produces the large heat output

Molecule: CC(C)(C)[N+]([O-])=Cc1ccccc1 [phenyl-N-tert-butylnitrone (PBN), phenyl-N-tert-butylnitrone]
- relief of SNL-induced mechanical allodynia (reactive oxygen species): relieves SNL-induced mechanical allodynia in a dose-dependent manner

Molecule: CS(=O)(=O)c1ccc(C2=C(c3ccccc3)C(=O)OC2)cc1 [Vioxx]
- partial recovery of dopamine production (COX-2): ~20%

B1: bovine msrA (Bos taurus) (protein)
chain: T1 sequence (P54149 21-233)
notes: made in house; host or cells: E. coli
- Km [2]: 7.6 µM
- kcat [2]: 0.27 s⁻¹
- Km [3]: 504 µM
- kcat [3]: 0.27 s⁻¹
- Km [4]: 112 µM
- kcat [4]: 0.56 s⁻¹

Second part, the molecule after the results:

- solubility [1]: < 1000 µM
Molecule: C[S+]([O-])c1ccc(CC(=O)O)cc1 (centres unmarked) [compound 106]

- Kcat (bovine msrA): 0.46 s⁻¹
- Km (bovine msrA): 750 µM
Molecule: C[S+]([O-])c1ccccc1 (centres unmarked) [compound 102, methyphenylsulfoxide]

- solubility [1]: < 1000 µM
Molecule: C[S+]([O-])c1ccc(-c2cc(C(=O)O)nn2-c2ccc(S(N)(=O)=O)cc2)cc1 (centres unmarked) [compound 108]

- solubility [1]: < 1000 µM
Molecule: C[S+]([O-])c1ccc(-c2cc(C(F)(F)F)nn2-c2ccc(S(N)(=O)=O)cc2)cc1 (centres unmarked) [compound 105]

- solubility [1]: < 1000 µM
Molecule: CSc1ccc(/C=C2/C(C)=C(CC(=O)NC(CC[S+](C)[O-])C(=O)O)c3cc(F)ccc32)cc1 (centres unmarked) [compound 107]

- substrate for msrA (turned over by the enzyme) (msrA): does not get turned over by msrA
- substrate for msrA (turned over by the enzyme) (msrA; listed as methionine sulfone): not a substrate for msrA
- Kcat (bovine msrA): 0 s⁻¹
Molecule: CS(=O)(=O)CC[C@H](N)C(=O)O [compound 109, methionine sulfone]
